The target of one test is CDK2 (Homo sapiens (Human), UniProt P24941). The test can be described thus: CDK2 NanoBiT assay (HiBiT-tagged CDK2 degradation). In kind it is cell-based. The following applies: HEK293, HEK293 clonal line, C-terminal HiBiT tag on CDK2, LgBiT; 24 hours. The gist of the method: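 HEK293 line with CRISPR knock-in C-terminal HiBiT-tagged CDK2 and stable LgBiT, preincubated 16 h with live-cell substrate, then compound-treated 24 h at 37° C, 5% CO2 (30 μM stock). Luminescence normalized to plate negative and positive controls; EC50 from 3-parameter logistic fit, Hill slope 1.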
(In general: HiBiT is a short tag that completes a luciferase, so light tracks the accessible tagged protein.)

The target in a further test is CRBN-DDB1 (Homo sapiens (Human), UniProt Q96SW2). The test can be described thus: CRBN HTRF assay (Cy5-Thalidomide probe displacement). The following applies: CRBN-DDB1 2.5 nM, Cy5-Thalidomide 100 nM, 30 min; Ki from geometric mean IC50 by Cheng-Prusoff. It is filed as binding. Summed up:
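HTRF displacement of Cy5-thalidomide probe (100 nM) from His-CRBN-DDB1 (2.5 nM) with anti-His terbium cryptate, in HEPES/NaCl/TCEP/EDTA/Tween20 buffer. 10-point 1:3 compound series, 30 min at ambient temperature; signal normalised to DMSO and lenalidomide controls, IC50 fitted and Ki derived by Cheng-Prusoff.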
A general note: TR-FRET usually uses a lanthanide donor and a delayed reading to cut background.

A value given as a limit tells only on which side of the number the result lay.

Sequence of CRBN-DDB1 (Q96SW2 whole entry): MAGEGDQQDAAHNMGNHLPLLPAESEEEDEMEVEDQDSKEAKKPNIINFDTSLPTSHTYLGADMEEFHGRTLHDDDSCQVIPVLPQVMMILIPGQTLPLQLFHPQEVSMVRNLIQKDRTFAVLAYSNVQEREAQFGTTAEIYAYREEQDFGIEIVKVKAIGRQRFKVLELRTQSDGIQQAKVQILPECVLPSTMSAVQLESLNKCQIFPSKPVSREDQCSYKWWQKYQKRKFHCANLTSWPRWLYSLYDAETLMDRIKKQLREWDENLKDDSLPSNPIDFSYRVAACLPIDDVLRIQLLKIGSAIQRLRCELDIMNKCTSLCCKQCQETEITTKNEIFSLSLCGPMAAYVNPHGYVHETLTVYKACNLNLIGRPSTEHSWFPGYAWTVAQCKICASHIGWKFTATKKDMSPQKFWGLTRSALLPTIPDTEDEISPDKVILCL
Sequence of CRBN-DDB1 (Q16531 whole entry partner): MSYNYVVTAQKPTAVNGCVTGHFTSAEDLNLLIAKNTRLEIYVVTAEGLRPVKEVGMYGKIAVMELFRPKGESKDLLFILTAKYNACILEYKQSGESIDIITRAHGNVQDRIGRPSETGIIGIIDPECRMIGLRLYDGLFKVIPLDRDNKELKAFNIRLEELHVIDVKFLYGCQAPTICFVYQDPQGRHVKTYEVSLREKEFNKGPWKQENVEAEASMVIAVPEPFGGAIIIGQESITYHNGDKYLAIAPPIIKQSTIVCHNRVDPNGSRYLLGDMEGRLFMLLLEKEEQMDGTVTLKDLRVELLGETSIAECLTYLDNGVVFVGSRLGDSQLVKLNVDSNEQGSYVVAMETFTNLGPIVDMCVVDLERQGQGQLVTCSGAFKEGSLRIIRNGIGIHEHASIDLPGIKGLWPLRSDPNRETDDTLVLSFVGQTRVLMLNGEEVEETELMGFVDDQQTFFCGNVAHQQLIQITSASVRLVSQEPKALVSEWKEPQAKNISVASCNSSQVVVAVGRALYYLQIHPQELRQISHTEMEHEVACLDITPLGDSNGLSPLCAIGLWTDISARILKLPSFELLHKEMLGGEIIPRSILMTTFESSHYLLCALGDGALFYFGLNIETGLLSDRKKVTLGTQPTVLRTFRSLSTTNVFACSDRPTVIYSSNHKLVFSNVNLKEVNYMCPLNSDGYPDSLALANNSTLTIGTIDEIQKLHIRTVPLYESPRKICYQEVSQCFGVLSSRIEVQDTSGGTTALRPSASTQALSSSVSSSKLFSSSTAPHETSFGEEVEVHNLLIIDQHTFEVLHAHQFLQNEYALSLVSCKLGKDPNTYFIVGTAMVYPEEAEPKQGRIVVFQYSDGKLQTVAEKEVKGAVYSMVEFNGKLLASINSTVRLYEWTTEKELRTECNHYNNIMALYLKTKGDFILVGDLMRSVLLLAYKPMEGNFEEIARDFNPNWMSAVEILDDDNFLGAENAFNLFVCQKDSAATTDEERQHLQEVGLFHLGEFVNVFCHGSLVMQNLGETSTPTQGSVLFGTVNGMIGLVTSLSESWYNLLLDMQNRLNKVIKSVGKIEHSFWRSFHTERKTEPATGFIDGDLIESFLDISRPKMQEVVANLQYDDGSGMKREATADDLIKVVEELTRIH

In general, Dmax refers to the greatest extent of degradation seen. One may read the Ki as a measure of affinity in units of concentration, obtained from inhibition or displacement. Take `CN(CC1CC1)C(=O)C12CC(OC(=O)NC3CN(c4cc(F)c(C5CCC(=O)NC5=O)c(F)c4)C3)(C1)C2` (stereo not drawn) [Compound 82, 3-((cyclopropylmethyl)(methyl)carbamoyl)bicyclo[1.1.1]pentan-1-yl (1-(4-(2,6-dioxopiperidin-3-yl)-3,5-difluorophenyl)azetidin-3-yl)carbamate]: on CDK2, the Dmax was > 80%. Moreover, the inhibitory constant (Ki) at CRBN-DDB1 was ≤ 100 nM.
On to `CC(C)(C)[Si](C)(C)O[C@H]1C[C@@H](COC(=O)NC2CN(c3cc(F)c(C4CCC(=O)NC4=O)c(F)c3)C2)C1` (stereo partly drawn) [Compound 49, ((1s, 3s)-3-((tert-butyldimethylsilyl)oxy)cyclobutyl)methyl (1-(4-(2,6-dioxopiperidin-3-yl)-3,5-difluorophenyl)azetidin-3-yl)carbamate], for which the greatest degradation seen (Dmax) on CDK2 is > 80%. At CRBN-DDB1, the inhibition constant (Ki) is 100 to 1000 nM.
On the same counts, the results for `Cc1cccc(-c2nnc(NC3CN(c4cc(F)c(C5CCC(=O)NC5=O)c(F)c4)C3)o2)c1` (stereo not drawn) [Compound 97, 3-(2,6-difluoro-4-(3-((5-(m-tolyl)-1,3,4-oxadiazol-2-yl)amino)azetidin-1-yl)phenyl)piperidine-2,6-dione] are > 80% and 100 to 1000 nM.

Source of the values: patent US20250263395A1, “COMPOUNDS THAT MEDIATE PROTEIN DEGRADATION AND METHODS OF USE THEREOF” (Monte Rosa Therapeutics AG, priority 2022, published 2025).
